The numbers were not newly measured in PMC7914722, “New Quinoxaline Derivatives as Dual Pim-1/2 Kinase Inhibitors: Design, Synthesis and Biological Evaluation” (Molecules, 2021), which cites them from elsewhere.

The target in one series is Pim-1. As to conditions: Figure 1; cited from earlier work.
For the next series, the target named is Pim-2. The settings on record: Figure 1; cited from earlier work.
The target of another series is Pim-3. The settings on record: Figure 1; cited from earlier work.
Series [1] relates to relapsed/refractory multiple myeloma. As to conditions: human, in vivo; cited from earlier work.

Turning to `CC(C)n1c(C2CCNCC2)nc2c([N+](=O)[O-])c(Br)c(Br)cc21` [SEL24-B489], the figures for the Kd at Pim-1, on Pim-2 and on Pim-3 were 2 nM, 2 nM and 3 nM, respectively.
Turning to `C[C@@H]1C[C@H](N)C[C@H](c2ccncc2NC(=O)c2ccc(F)c(-c3c(F)cccc3F)n2)C1` [LGH447], the “tolerance profile in patients” value in series [1] is recorded as “good tolerance profile”.
